# US7868172B2, “2-(hetero)-aryl substituted tetrahydroquinoline derivatives” (Merck Patent GmbH, priority 2003, dated 2011)
# Values joined by “and” are separate entries in the source; they are usually repeats but may differ in a detail not shown here. Identical values can stand only once.
# Legend:
# HCT116 cells = experiment: Cell cycle analysis, propidium iodide FACS (DNA content); type: cell-based; settings: for percentage of cells in the G0/G1 phase (G1) / percentage of cells in the G2/M phase / percentage of cells in the S phase: HCT116, 24 hrs
# Procedure: Monasterol and pentamidine in individual experiments: • HCT116 cells were treated with the given concentrations of the compounds for 24 hrs, processed for the propidium iodide analysis with a BD-FACS scan in order to determine the DNA content of the treated cell populations. The percentage of cells in the G0/G1 phase (unreplicated DNA), S phase (DNA replication phase) and G2/M phase (duplicated DNA before mitosis) is shown. 10,000 events were counted for each concentration. Striking changes in the G2/M enrichment have been highlighted.
# [1] = system: colon carcinoma cell line HCT116; experiment: Assay II: combination cell proliferation test, Crystal Violet staining; type: cell-based; settings: for -fold inhibition of proliferation / OD550 nm background corrected / % of control: 48 hrs
# Procedure: The combination of the antiprotozoic pentamidine and the inhibitors of kinesin ATPase Eg5/KSP results in increased inhibitory effects in cell proliferation tests with the colon carcinoma cell line HCT116.
# 10^3 to 10^4 cells of a defined cell line (HCT116, Colo 205, MDA-MB 231, etc.) are sown into each well of a 96-well microtitre plate and cultivated overnight under standard conditions. For the substances of the combination to be tested, 10-50 mM stock solutions in DMSO were prepared. Dilution series (generally 3-fold dilution steps) of the individual substances were combined with one another in the form of a pipetting scheme (see scheme below), while maintaining a DMSO final concentration of 0.5% (v/v). Next morning, the substance mixtures were added to the cells, which were incubated under culture conditions for a further 48 hours. At the end of the cultivation, Crystal Violet staining of the cells was carried out. After extraction of the Crystal Violet from the fixed cells, the absorption at 550 nm was measured spectrophotometrically. It can be used as a quantitative measure of the adherent cells present.
# HCT116 cells were incubated overnight at 37° C. in 96-well plates at a density of 2500 or 5000 cells/well. On the following day, a concentration matrix of pentamidine and the compounds indicated was added, and the cells were incubated for a further 48 hrs. The cells were then stained with Crystal Violet, and the absorption was measured after extraction of the dye. The absorption value reflects the number of cells in the well.
# Results: Upper matrix: OD550 nm background corrected Central matrix: % of control (the 100% value stands for vehicle-treated cells minus background signal) Lower field: -fold inhibition values (i.e. the 100%/x % value stands for a-fold inhibition of proliferation).
# [2] = monastrol 6.125 μM, pentamidine 0 μM
# [3] = monastrol 12.5 μM, pentamidine 0 μM
# [4] = monastrol 25 μM, pentamidine 0 μM
# [5] = monastrol 50 μM, pentamidine 0 μM
smiles,measurement,setting,value
N=C(N)c1ccc(OCCCCCOc2ccc(C(=N)N)cc2)cc1.O=S(=O)(O)CCO.O=S(=O)(O)CCO [Pentamidine Isothionate],percentage of cells in the G0/G1 phase (G1),HCT116 cells; 0.016 μM,36%
same,percentage of cells in the G2/M phase,HCT116 cells; 0.016 μM,22%
same,percentage of cells in the S phase,HCT116 cells; 0.016 μM,42%
same,percentage of cells in the G0/G1 phase (G1),HCT116 cells; 0.08 μM,35%
same,percentage of cells in the G2/M phase,HCT116 cells; 0.08 μM,21%
same,percentage of cells in the S phase,HCT116 cells; 0.08 μM,44%
same,percentage of cells in the G0/G1 phase (G1),HCT116 cells; 0.4 μM,33%
same,percentage of cells in the G2/M phase,HCT116 cells; 0.4 μM,22%
same,percentage of cells in the S phase,HCT116 cells; 0.4 μM,45%
same,percentage of cells in the G0/G1 phase (G1),HCT116 cells; 2 μM,32%
same,percentage of cells in the G2/M phase,HCT116 cells; 2 μM,24%
same,percentage of cells in the S phase,HCT116 cells; 2 μM,44%
same,percentage of cells in the G0/G1 phase (G1),HCT116 cells; 10 μM,32%
same,percentage of cells in the G2/M phase,HCT116 cells; 10 μM,32%
same,percentage of cells in the S phase,HCT116 cells; 10 μM,32%
CCOC(=O)C1=C(C)NC(=S)NC1c1cccc(O)c1 (stereo not drawn) [Monastrol],activity at 6.125 µM,"[1]; Homo sapiens, HCT-116, 48 h, monastrol 6.125 μM, pentamidine 0 μM, read-out: % of control",84%
same,activity at 12.5 µM,"[1]; Homo sapiens, HCT-116, 48 h, monastrol 12.5 μM, pentamidine 0 μM, read-out: % of control",62%
same,activity at 25 µM,"[1]; Homo sapiens, HCT-116, 48 h, monastrol 25 μM, pentamidine 0 μM, read-out: % of control",53%
same,activity at 50 µM,"[1]; Homo sapiens, HCT-116, 48 h, monastrol 50 μM, pentamidine 0 μM, read-out: % of control",17%
same,-fold inhibition of proliferation,[1]; [2],1 fold
same,OD550 nm background corrected,[1]; [2],0.68
same,-fold inhibition of proliferation,[1]; [3],2 fold
same,OD550 nm background corrected,[1]; [3],0.51
same,-fold inhibition of proliferation,[1]; [4],2 fold
same,OD550 nm background corrected,[1]; [4],0.43
same,-fold inhibition of proliferation,[1]; [5],6 fold
same,OD550 nm background corrected,[1]; [5],0.14
same,percentage of cells in the G0/G1 phase (G1),HCT116 cells; 0.08 μM,35%
same,percentage of cells in the G2/M phase,HCT116 cells; 0.08 μM,25%
same,percentage of cells in the S phase,HCT116 cells; 0.08 μM,39%
same,percentage of cells in the G0/G1 phase (G1),HCT116 cells; 0.4 μM,34%
same,percentage of cells in the G2/M phase,HCT116 cells; 0.4 μM,28%
same,percentage of cells in the S phase,HCT116 cells; 0.4 μM,38%
same,percentage of cells in the G0/G1 phase (G1),HCT116 cells; 2 μM,33%
same,percentage of cells in the G2/M phase,HCT116 cells; 2 μM,25%
same,percentage of cells in the S phase,HCT116 cells; 2 μM,42%
same,percentage of cells in the G0/G1 phase (G1),HCT116 cells; 10 μM,34%
same,percentage of cells in the G2/M phase,HCT116 cells; 10 μM,27%
same,percentage of cells in the S phase,HCT116 cells; 10 μM,39%
same,percentage of cells in the G0/G1 phase (G1),HCT116 cells; 50 μM,14%
same,percentage of cells in the G2/M phase,HCT116 cells; 50 μM,52%
same,percentage of cells in the S phase,HCT116 cells; 50 μM,33%
"N=C(N)c1ccc(OCCCCCOc2ccc(C(=N)N)cc2)cc1 [Pentamidine, pentamidine]",activity at 4 µM,"[1]; Homo sapiens, HCT-116, 48 h, pentamidine 4 μM alone, read-out: % of control",85%
same,activity at 8 µM,"[1]; Homo sapiens, HCT-116, 48 h, pentamidine 8 μM alone, read-out: % of control",50%
same,activity at 16 µM,"[1]; Homo sapiens, HCT-116, 48 h, pentamidine 16 μM alone, read-out: % of control",30%
same,activity at 32 µM,"[1]; Homo sapiens, HCT-116, 48 h, pentamidine 32 μM alone, read-out: % of control",20%
same,% of control,[1]; pentamidine 2 μM alone,86% and 124%
same,-fold inhibition of proliferation,[1]; pentamidine 2 μM alone,1 fold
same,OD550 nm background corrected,[1]; pentamidine 2 μM alone,1.0 and 1.01
same,% of control,[1]; pentamidine 4 μM alone,101%
same,-fold inhibition of proliferation,[1]; pentamidine 4 μM alone,1 fold
same,OD550 nm background corrected,[1]; pentamidine 4 μM alone,1.0 and 0.82
same,% of control,[1]; pentamidine 8 μM alone,55%
same,-fold inhibition of proliferation,[1]; pentamidine 8 μM alone,2 fold
same,OD550 nm background corrected,[1]; pentamidine 8 μM alone,0.6 and 0.45
same,% of control,[1]; pentamidine 16 μM alone,18%
same,-fold inhibition of proliferation,[1]; pentamidine 16 μM alone,3 fold and 6 fold
same,-fold inhibition of proliferation,[1]; pentamidine 32 μM alone,5 fold
same,OD550 nm background corrected,[1]; pentamidine 32 μM alone,0.2
same,effect on the cell cycle (in words),HCT116 cells,maintain cells in the G2/M cell cycle
CC(C)(C)c1ccc2c(c1)[C@H]1OCCC[C@H]1[C@H](c1ccsc1)N2 [Example I12],activity at 0.025 µM,"[1]; Homo sapiens, HCT-116, 48 h, I12 0.025 μM, pentamidine 0 μM, read-out: % of control",91%
same,activity at 0.05 µM,"[1]; Homo sapiens, HCT-116, 48 h, I12 0.05 μM, pentamidine 0 μM, read-out: % of control",98%
same,activity at 0.1 µM,"[1]; Homo sapiens, HCT-116, 48 h, I12 0.1 μM, pentamidine 0 μM, read-out: % of control",90%
same,activity at 0.2 µM,"[1]; Homo sapiens, HCT-116, 48 h, I12 0.2 μM, pentamidine 0 μM, read-out: % of control",90%
same,activity at 0.4 µM,"[1]; Homo sapiens, HCT-116, 48 h, I12 0.4 μM, pentamidine 0 μM, read-out: % of control",31%
same,-fold inhibition of proliferation,"[1]; I12 0.025 μM, pentamidine 0 μM",1 fold
same,OD550 nm background corrected,"[1]; I12 0.025 μM, pentamidine 0 μM",1.1
same,-fold inhibition of proliferation,"[1]; I12 0.05 μM, pentamidine 0 μM",1 fold
same,OD550 nm background corrected,"[1]; I12 0.05 μM, pentamidine 0 μM",1.2
same,-fold inhibition of proliferation,"[1]; I12 0.1 μM, pentamidine 0 μM",1 fold
same,OD550 nm background corrected,"[1]; I12 0.1 μM, pentamidine 0 μM",1.1
same,-fold inhibition of proliferation,"[1]; I12 0.2 μM, pentamidine 0 μM",1 fold
same,OD550 nm background corrected,"[1]; I12 0.2 μM, pentamidine 0 μM",1.1
same,-fold inhibition of proliferation,"[1]; I12 0.4 μM, pentamidine 0 μM",3 fold
same,OD550 nm background corrected,"[1]; I12 0.4 μM, pentamidine 0 μM",0.4
same,percentage of cells in the G0/G1 phase (G1),HCT116 cells; 0.0032 μM,36%
same,percentage of cells in the G2/M phase,HCT116 cells; 0.0032 μM,21%
same,percentage of cells in the S phase,HCT116 cells; 0.0032 μM,44%
same,percentage of cells in the G0/G1 phase (G1),HCT116 cells; 0.016 μM,36%
same,percentage of cells in the G2/M phase,HCT116 cells; 0.016 μM,21%
same,percentage of cells in the S phase,HCT116 cells; 0.016 μM,43%
same,percentage of cells in the G0/G1 phase (G1),HCT116 cells; 0.08 μM,35%
same,percentage of cells in the G2/M phase,HCT116 cells; 0.08 μM,23%
same,percentage of cells in the S phase,HCT116 cells; 0.08 μM,42%
same,percentage of cells in the G0/G1 phase (G1),HCT116 cells; 0.4 μM,7%
same,percentage of cells in the G2/M phase,HCT116 cells; 0.4 μM,86%
same,percentage of cells in the S phase,HCT116 cells; 0.4 μM,7%
same,percentage of cells in the G0/G1 phase (G1),HCT116 cells; 2 μM,0%
same,percentage of cells in the G2/M phase,HCT116 cells; 2 μM,85%
same,percentage of cells in the S phase,HCT116 cells; 2 μM,15%
